Broadly, the GI50 is the concentration that inhibits growth by half. Low values mean more potent growth inhibition, high ones less potent growth inhibition.

Here are results for 21 molecules from patent US20250388605A1, “HETEROBIFUNCTIONAL COMPOUNDS AND METHODS OF TREATING DISEASE” (Halda Therapeutics OpCo, Inc., priority 2022, published 2025).

The test system of experiment [1] is T47D cells. The experiment is described as follows: Cellular Growth Inhibition Assay for T47D Cells (CellTiter-Glo). It counts as cell-based, human. As to conditions: 72 hours. An outline of the steps: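 GI50 values derive from four-parameter regression of CellTiter-Glo 2.0 luminescence, using zero luminescence as baseline. Human breast cancer T47D cells (3000/well; DMEM, 10% FBS, 0.2 units/mL insulin) were exposed for 72 h to compound dilutions at 0.5% DMSO, with dosing starting 24 h after seeding.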
On the technique in general: Cellular ATP, detected with luciferase, serves as a proxy for viable cell number.

The subject of experiment [2] is VCaP cells. Kind of experiment: Cellular growth inhibition assay for VCaP cells, CellTiter-Glo. As to conditions: 72 hours. It counts as cell-based, human. The essentials: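 GI50 values come from four-parameter curve fits of luminescence data normalized to a zero baseline. Compound, in medium with 0.5% DMSO, was added one day after plating and left for 72 h before CellTiter-Glo 2.0 addition.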

The test system of experiment [3] is T-Rex 293 cell line SC3 cells lacking increased expression of androgen receptor protein. The experiment is described as follows: Cellular growth inhibition, T-Rex 293 SC3 cells without doxycycline (no increased androgen receptor expression), CellTiter-Glo. Type of experiment: cell-based. Conditions: T-Rex 293 SC3 cells not exposed to doxycycline (no increased androgen receptor expression), 72 hours. The essentials:
(§1)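 Growth inhibition is measured in an inducible AR-expressing T-Rex 293 clone, SC3, cultured with or without 10 ng/mL doxycycline in hormone-depleted medium. Test compounds are applied for 72 hours. GI50 values derive from CellTiter-Glo 2.0 signal fitted by four-parameter regression.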

The test system of experiment [4] is T-Rex 293 cell line SC3 cells having increased expression of androgen receptor protein due to exposure to doxycycline. The experiment is described as follows: Cellular growth inhibition, T-Rex 293 SC3 cells with doxycycline (increased androgen receptor expression), CellTiter-Glo. Conditions: T-Rex 293 SC3 cells with 10 ng/mL doxycycline (increased androgen receptor expression), 72 hours, CellTiter-Glo 2.0. Type of experiment: cell-based. The essentials:
as §1

`CC(=O)N(C)c1ccc(Oc2cccc(OCCOC3CCN(c4ncc(C(=O)N[C@H]5C(C)(C)[C@H](Oc6ccc(C#N)c(Cl)c6)C5(C)C)cn4)CC3)c2)c(-c2cn(C)c(=O)c3[nH]ccc23)c1` [Compound I-58]: the GI50 in experiment [1] (Homo sapiens) is 500 to 1500 nM; in experiment [2] (Homo sapiens) it was under 500 nM; in experiment [3] it was over 3000 nM; in experiment [4] it was under 500 nM.

Turning to `Cn1cc(-c2cc([N+](=O)[O-])ccc2Oc2cccc(OCCOC3CCN(c4ncc(C(=O)N[C@H]5C(C)(C)[C@H](Oc6ccc(C#N)c(Cl)c6)C5(C)C)cn4)CC3)c2)c2cc[nH]c2c1=O` [Compound I-63, N-((1r, 3r)-3-(3-chloro-4-cyanophenoxy)-2,2,4,4-tetramethylcyclobutyl)-2-(4-(2-(3-(2-(6-methyl-7-oxo-6,7-dihydro-1H-pyrrolo[2,3-c]pyridin-4-yl)-4-nitrophenoxy)phenoxy)ethoxy)piperidin-1-yl)pyrimidine-5-carboxamide], the 50% growth inhibitory concentration (GI50) in experiment [1] (Homo sapiens) was 500 to 1500 nM; in experiment [2] (Homo sapiens), under 500 nM; in experiment [3], over 3000 nM; in experiment [4], under 500 nM.

Consider `CCS(=O)(=O)Nc1ccc(Oc2cccc(C3CN(C4CCN(c5ncc(C(=O)N[C@H]6C(C)(C)[C@H](Oc7ccc(C#N)c(Cl)c7)C6(C)C)cn5)CC4)C3)c2)c(-c2cn(C)c(=O)c3[nH]ccc23)c1` [Compound I-76], for which the GI50 in experiment [1] (Homo sapiens) was under 500 nM; in experiment [2] (Homo sapiens) it was under 500 nM; in experiment [3] it was 1500 to 3000 nM; in experiment [4], under 500 nM.

On to `CCS(=O)(=O)Nc1ccc(Oc2cccc(C3CN(CC4CCN(c5ncc(C(=O)N[C@H]6C(C)(C)[C@H](Oc7ccc(C#N)c(Cl)c7)C6(C)C)cn5)CC4)C3)c2)c(-c2cn(C)c(=O)c3[nH]ccc23)c1` [Compound I-78], for which the GI50 in experiment [1] (Homo sapiens), in experiment [2] (Homo sapiens), in experiment [3] and in experiment [4] was under 500 nM in each case.

On to `CCS(=O)(=O)Nc1ccc(Oc2cccc(N3CC(CC4CCN(c5ncc(C(=O)N[C@H]6C(C)(C)[C@H](Oc7ccc(C#N)c(Cl)c7)C6(C)C)cn5)CC4)C3)c2)c(-c2cn(C)c(=O)c3[nH]ccc23)c1` [Compound I-79], for which the 50% growth inhibitory concentration (GI50) in experiment [1] (Homo sapiens) is under 500 nM; in experiment [2] (Homo sapiens), under 500 nM; in experiment [3] it was 500 to 1500 nM; in experiment [4], under 500 nM.

For `CCS(=O)(=O)Nc1ccc(Oc2cccc(N3CCC(OC4CCN(c5ncc(C(=O)N[C@H]6C(C)(C)[C@H](Oc7ccc(C#N)c(Cl)c7)C6(C)C)cn5)CC4)C3)c2)c(-c2cn(C)c(=O)c3[nH]ccc23)c1` (stereo partly drawn) [Compound I-81], the 50% growth inhibitory concentration (GI50) in experiment [1] (Homo sapiens) was under 500 nM; in experiment [2] (Homo sapiens), under 500 nM; in experiment [3], over 3000 nM; in experiment [4] it was under 500 nM.

Turning to `CCS(=O)(=O)Nc1ccc(Oc2cccc(N3CCC(OC4CCN(c5ncc(C(=O)N[C@H]6C(C)(C)[C@H](Oc7ccc(C#N)c(Cl)c7)C6(C)C)cn5)CC4)CC3)c2)c(-c2cn(C)c(=O)c3[nH]ccc23)c1` [Compound I-82], the concentration for 50% growth inhibition (GI50) in experiment [1] (Homo sapiens) is under 500 nM; in experiment [2] (Homo sapiens) it was under 500 nM; in experiment [3], over 3000 nM; in experiment [4] it was under 500 nM.

`Cn1cc(-c2cc(N)ccc2Oc2cccc(N3CC(N4CCN(c5ncc(C(=O)N[C@H]6C(C)(C)[C@H](Oc7ccc(C#N)c(Cl)c7)C6(C)C)cn5)CC4)C3)c2)c2cc[nH]c2c1=O` [Compound I-89, 2-(4-(1-(3-(4-amino-2-(6-methyl-7-oxo-6,7-dihydro-1H-pyrrolo[2,3-c]pyridin-4-yl)phenoxy)phenyl)azetidin-3-yl)piperazin-1-yl)-N-((1r, 3r)-3-(3-chloro-4-cyanophenoxy)-2,2,4,4-tetramethylcyclobutyl)pyrimidine-5-carboxamide]: the concentration for 50% growth inhibition (GI50) in experiment [1] (Homo sapiens) is 500 to 1500 nM; in experiment [2] (Homo sapiens), under 500 nM; in experiment [3], over 3000 nM; in experiment [4], under 500 nM.

As for `Cn1cc(-c2ccccc2Oc2cccc(OCCC3CCN(c4ncc(C(=O)N[C@H]5C(C)(C)[C@H](Oc6ccc(C#N)c(Cl)c6)C5(C)C)cn4)CC3)c2)c2cc[nH]c2c1=O` [Compound I-102], the GI50 in experiment [1] (Homo sapiens) is 1500 to 3000 nM; in experiment [2] (Homo sapiens), under 500 nM; in experiment [3], 500 to 1500 nM; in experiment [4] it was under 500 nM.

As to `Cn1cc(-c2cc(N)ccc2Oc2cccc(OCCC3CCN(c4ncc(C(=O)N[C@H]5C(C)(C)[C@H](Oc6ccc(C#N)c(Cl)c6)C5(C)C)cn4)CC3)c2F)c2cc[nH]c2c1=O` [Compound I-103], the GI50 was 1500 to 3000 nM in experiment [1] (Homo sapiens), under 500 nM in experiment [2] (Homo sapiens), over 3000 nM in experiment [3] and under 500 nM in experiment [4].

Take `CCS(=O)(=O)Cc1ccc(Oc2cccc(N3CC(N4CCN(c5ncc(C(=O)N[C@H]6C(C)(C)[C@H](Oc7ccc(C#N)c(Cl)c7)C6(C)C)cn5)CC4)C3)c2)c(-c2cn(C)c(=O)c3[nH]ccc23)c1` [Compound I-114]: the concentration for 50% growth inhibition (GI50) in experiment [1] (Homo sapiens), in experiment [2] (Homo sapiens), in experiment [3] and in experiment [4] was under 500 nM each time.

`Cn1cc(-c2ccccc2Oc2cccc(OCCN3CCN(c4ncc(C(=O)N[C@H]5C(C)(C)[C@H](Oc6ccc(C#N)c(Cl)c6)C5(C)C)cn4)CC3)c2F)c2cc[nH]c2c1=O` [Compound I-115]: the GI50 in experiment [1] is 500 to 1500 nM; in experiment [2], under 500 nM; in experiment [3], under 500 nM; in experiment [4], under 500 nM.

For `Cn1cc(-c2ccccc2Oc2cccc(OCCC3CCN(c4ncc(C(=O)N[C@H]5C(C)(C)[C@H](Oc6ccc(C#N)c(Cl)c6)C5(C)C)cn4)CC3)c2F)c2cc[nH]c2c1=O` [Compound I-117], the GI50 in experiment [1] is 500 to 1500 nM; in experiment [2] it was under 500 nM; in experiment [3], over 3000 nM; in experiment [4], under 500 nM.

Take `CC(C)c1ccc(Oc2cccc(N3CC(N4CCN(c5ncc(C(=O)N[C@H]6C(C)(C)[C@H](Oc7ccc(C#N)c(Cl)c7)C6(C)C)cn5)CC4)C3)c2)c(-c2cn(C)c(=O)c3[nH]ccc23)c1` [Compound I-122, N-[3-(3-chloro-4-cyano-phenoxy)-2,2,4,4-tetramethyl-cyclobutyl]-2-[4-[1-[3-[4-isopropyl-2-(6-methyl-7-oxo-1H-pyrrolo[2,3-c]pyridin-4-yl)phenoxy]phenyl]azetidin-3-yl]piperazin-1-yl]pyrimidine-5-carboxamide]: the GI50 was 500 to 1500 nM in experiment [1] (Homo sapiens), over 3000 nM in experiment [2] (Homo sapiens), over 3000 nM in experiment [3] and under 500 nM in experiment [4].

Take `CC(C)c1ccc(Oc2cccc(N3CC(N4CCN(c5ncc(C(=O)N[C@H]6C(C)(C)[C@H](Oc7ccc(C#N)c(Cl)c7)C6(C)C)cn5)CC4)C3)c2F)c(-c2cn(C)c(=O)c3[nH]ccc23)c1` [Compound I-123]: the GI50 in experiment [1] (Homo sapiens) was 500 to 1500 nM; in experiment [2] (Homo sapiens), over 3000 nM; in experiment [3] it was over 3000 nM; in experiment [4] it was under 500 nM.

On to `CC(C)c1ccc(Oc2cccc(CCCN3CCN(c4ncc(C(=O)NC5C(C)(C)C(Oc6ccc(C#N)c(Cl)c6)C5(C)C)cn4)CC3)c2)c(-c2cn(C)c(=O)c3[nH]ccc23)c1` (stereo not drawn) [Compound I-125, N-[3-(3-chloro-4-cyano-phenoxy)-2,2,4,4-tetramethyl-cyclobutyl]-2-[4-[3-[3-[4-isopropyl-2-(6-methyl-7-oxo-1H-pyrrolo[2,3-c]pyridin-4-yl)phenoxy]phenyl]propyl]piperazin-1-yl]pyrimidine-5-carboxamide], for which the GI50 in experiment [1] (Homo sapiens) is 1500 to 3000 nM; in experiment [2] (Homo sapiens), under 500 nM; in experiment [3], over 3000 nM; in experiment [4], under 500 nM.

Turning to `CCS(=O)(=O)Nc1ccc(Oc2cccc(C3CC(N(C)C4CCN(c5ncc(C(=O)N[C@H]6C(C)(C)[C@H](Oc7ccc(C#N)c(Cl)c7)C6(C)C)cn5)CC4)C3)c2)c(-c2cn(C)c(=O)c3[nH]ccc23)c1` (stereo partly drawn) [Compound I-129], the 50% growth inhibitory concentration (GI50) in experiment [1], in experiment [2], in experiment [3] and in experiment [4] was under 500 nM throughout.

Turning to `Cn1cc(-c2ccccc2Oc2cccc(CCCN3CCN(c4ncc(C(=O)NC5C(C)(C)C(Oc6ccc(C#N)c(Cl)c6)C5(C)C)cn4)CC3)c2)c2cc[nH]c2c1=O` (stereo not drawn) [Compound I-134, N-[3-(3-chloro-4-cyano-phenoxy)-2,2,4,4-tetramethyl-cyclobutyl]-2-[4-[3-[3-[2-(6-methyl-7-oxo-1H-pyrrolo[2,3-c]pyridin-4-yl)phenoxy]phenyl]propyl]piperazin-1-yl]pyrimidine-5-carboxamide], the GI50 was 500 to 1500 nM in experiment [1] (Homo sapiens), under 500 nM in experiment [2] (Homo sapiens), 500 to 1500 nM in experiment [3] and under 500 nM in experiment [4].

Take `Cn1cc(-c2ccccc2Oc2cccc(CCOC3CCN(c4ncc(C(=O)N[C@H]5C(C)(C)[C@H](Oc6ccc(C#N)c(Cl)c6)C5(C)C)cn4)CC3)c2)c2cc[nH]c2c1=O` [Compound I-146]: the GI50 in experiment [1] was under 500 nM; in experiment [2], under 500 nM; in experiment [3], over 3000 nM; in experiment [4], under 500 nM.

Regarding `CC(C)c1ccc(Oc2cccc(CCOC3CCN(c4ncc(C(=O)N[C@H]5C(C)(C)[C@H](Oc6ccc(C#N)c(Cl)c6)C5(C)C)cn4)CC3)c2F)c(-c2cn(C)c(=O)c3[nH]ccc23)c1` [Compound I-148], the GI50 in experiment [1] was 500 to 1500 nM; in experiment [2], under 500 nM; in experiment [3], over 3000 nM; in experiment [4], under 500 nM.

Turning to `Cn1cc(-c2ccccc2Oc2cccc(CCOC3CCN(c4ncc(C(=O)N[C@H]5C(C)(C)[C@H](Oc6ccc(C#N)c(Cl)c6)C5(C)C)cn4)CC3)c2F)c2cc[nH]c2c1=O` [Compound I-149], the concentration for 50% growth inhibition (GI50) in experiment [1] is 500 to 1500 nM; in experiment [2] it was under 500 nM; in experiment [3], under 500 nM; in experiment [4], under 500 nM.
